Assay results taken from patent US20020164581A1 (priority 2001, published 2002).

Assays:
[1] = test system: bovine aortic endothelial cells (bAECs)
Procedure: Prior to E2 pretreatment, cells were grown in phenol red-free DMEM supplemented with 10% dextran/charcoal-stripped FBS for at least 1 passage (3-4 days). Phenol red-free Dulbecco's modified medium was used to avoid potential estrogenic interference. Serum steroid deprivation was conducted according to the conditions described by Yeh et al. (Proc. Natl. Acad. Sci. USA 95:5527-5532, 1998). The E2 level in the stripped serum was assayed using an [^125I] 17β-estradiol radioimmunoassay kit (TKE21, Diagnostic Products Corporation, Los Angeles, Calif.). […] The cells grown in E2-free environments were plated onto Falcon 24-well Primariae™ plates at a density of 5×10^4 cells/well. E2 in dimethylsulfoxide (DMSO) was added to each well at final concentrations ranging from 1 nM to 10 μM 3 hours after plating, and the cells were then incubated for 24 hours (a duration commonly used for the studies of the genomic effects of E2) at 37° C. Control cells were treated with a corresponding amount of DMSO (a final concentration 0.05%).
To study the difference between male and female cells in their response to E2, bAECs from male and female animals were treated with various concentrations of E2 for 24 hours and then challenged with paraquat (1,1′-dimethyl-4,4′-bipyridinium dichloride, methyl viologen). Paraquat was used because it generates the superoxide anion O2 in living cells. […] Accordingly, E2 ranging in concentration from 1 nM to 10 μM was used in these studies.

LDL = conditions: 5-50 μM; oxidation by copper ions, monocytes, or endothelial cells; cited from earlier work

C[C@]12CC[C@@H]3c4ccc(O)cc4CC[C@H]3[C@@H]1CC[C@@H]2O [E2, 17β-estradiol]
E2 concentration that suppressed growth ([1]; both, bovine, 24 h): ≥ 100 µM
E2 concentration that significantly inhibited endothelial cell growth ([1]; female, bovine, 24 h): ≥ 100 µM
cell count without subsequent paraquat exposure ([1]; groups pretreated with various doses of E2, comparable among groups, average): 3.1×10^5 per well
effect on LDL oxidation (LDL): inhibit LDL oxidation
